From article PMC11232401, “Characterization of antimalarial activity of artemisinin-based hybrid drugs” (Antimicrobial Agents and Chemotherapy, 2024)
Like-named read-outs stand apart in the source and are kept apart here. One block for each molecule: values may come before it.

How the values were obtained:
[1] = In vitro metabolic stability assay in microsomes; type: in vitro ADME; conditions: for half-life at 1 µM: read-out: Degradation half-life; for microsomal CLint at 1 µM: 0.4 mg/mL
Protocol: In vitro microsomal stability assay was performed in duplicate in a 96-well microtiter plate, using a single-point experiment design ([42]). Test compounds (1 µM) were incubated individually in human (pool of 50, mixed gender), rat (pool of 711, male Sprague Dawley), and mouse (pool of 1,634, male CD1) liver microsomes (Xenotech, Kansas, USA) to a final protein concentration of 0.4 mg/mL, suspended in 0.1 M phosphate buffer (pH 7.4). Incubations were started by the addition of NADPH (1 mM) as a cofactor and shaken for 30 min at 37°C. The reactions were quenched by the addition of 300 µL of ice-cold acetonitrile containing an internal standard (carbamazepine, 0.0236 µg/mL) and centrifuged. The supernatant was transferred to a fresh 96-well plate and analyzed by liquid chromatography-tandem mass spectrometry (LC-MS/MS) (Agilent Rapid Resolution HPLC, AB SCIEX 4500 MS). The relative loss of the parent compound over time was monitored, and plots (concentration vs time) were prepared per compound to determine the first-order rate constant for compound depletion. This was in turn used to calculate half-life, in vitro intrinsic clearance (Clint), and in vivo hepatic extraction ratio ([43]).

[2] = test system: 3D7 strain of P. falciparum; assay: Host cell-mediated drug degradation: antiplasmodial activity of uRBC supernatants; type: cell-based, Plasmodium falciparum; conditions: for IC50: Plasmodium falciparum, 3D7, 0.16 h, 500 nM drug, 3D7, SYBR Green I, median ± SEM (AQ mean, 95% CI), read-out: IC50 of supernatants harvested at 0.16 h; for Fold changes (24 h/0.16 h): 3D7, ratio of IC50 at 24 h to IC50 at 0.16 h
Protocol: Each well of 96-well plates was filled with 125 µL drug (1000 nM) and 125 µL uninfected red blood cells (uRBC), which were mixed to obtain a final drug concentration of 500 nM and 2.5% or 1.0% hematocrit. The plates were incubated at 37°C in the standard gas mixture. After each time point (10 min, 6 h, and 24 h), supernatants were carefully harvested and stored at −80°C until use. […] Next, supernatants were diluted in a complete medium in six different dilutions and were aliquoted in new plates. The antimalarial activity of these supernatants and freshly dissolved drugs was determined in an asynchronous parasite culture of P. falciparum (3D7, D10, and W2 strains) for 72 h using the same method described above, and parasite viability was assessed by the pLDH ([38]) and SYBR Green I ([41]) methods. Only the experiments where the IC50 values of the supernatants harvested at 10 min were the same as those of the respective fresh drugs were considered for determining equivalent drug concentration. […] Decay in drug concentration was estimated by using the normalized slope values calculated from linear regression fits using the slope values of a standard curve as reference. Three independent experiments were performed using two replicates.
Figure S5: Data associated to Figure 3 in the main text of the manuscript. Panel A: Representative response-concentration curves of the antiplasmodial activity of supernatant-derived uRBC (2.5% hematocrit) harvested at indicated times (0.16, 6, and 24 h). Drug activity on parasite viability was determined 72 h after parasite incubation (3D7 strain, asynchronous). Values were subtracted from control (without treatment), transformed, and normalized to calculate nonlinear fit. Parasite viability was determined by SYBR Green I. Values are mean and error bars are the standard deviation of a single experiment, each concentration in duplicate. […] Footnotes: ^[a] Parasite viability was determined by SYBR Green I. ^[b^] Parasite viability was determined by pLDH readout. Values are median ± SEM of three independent experiments, each concentration in duplicate. ^[c^] […] These values are expressed as mean and 95% confidence interval (CI) of one experiment, each concentration in duplicate. […] Unpaired two-tailed t-test at 95% CI: *p <0.05; **p <0.01.

[3] = test system: Asynchronous NF54 strain of P. falciparum; assay: Speed of drug activity (pLDH); type: cell-based, Plasmodium falciparum; conditions: for IC50: Plasmodium falciparum, NF54, asynchronous, mean (95% CI)
Protocol: Each well of 96-well plates was filled with 100 µL drug and 100 µL culture containing asynchronous P. falciparum (NF54 strain) parasites, which were mixed to obtain a final parasitemia of 1.0% to 1.5% and 1.0% hematocrit. The plates were incubated for 24, 48, and 72 h at 37°C with a standard gas mixture. […] Parasite viability was measured using the pLDH method, and IC50 values were calculated as described above. Three independent experiments were performed using two technical replicates.
Figure S3: Speed of antiparasitic activity of hybrids (1) and (2) against CQ-sensitive NF54 strain of P. falciparum. Panel A: Representative response-concentration curves. Panel B: A table summarizing the results. Footnotes for table: ^[a] Parasite viability was accessed at each indicated time (24, 48, or 72 h) after addition of drugs. Values are the mean and 95% confidence interval of one experiment using each concentration of compounds in duplicate. Parasite viability was determined by parasite lactate dehydrogenase (pLDH) assay. DHA = dihydroartemisinin; ATO = atovaquone.

[4] = test system: quiescent ART-resistant parasites (F32-ART); assay: Quiescent-stage survival assay (QSA); type: cell-based, Plasmodium falciparum; conditions: threshold of activity 6 days
Protocol: The QSA was performed as previously described to determine the drug activity on quiescent ART-resistant parasites ([11]). F32-ART culture parasites were synchronized at the ring stage and adjusted to 3% parasitemia and 2% hematocrit. […] At the end of treatment, parasites from each of the three conditions were washed with RPMI-1640 medium and replaced in new wells in a drug-free culture medium with 10% human serum. Parasitemia was determined daily by thin blood smears until the cultures reached their initial parasitemia (3%), which was defined as the recrudescence day ([11]). The recrudescence capacity of parasites exposed in conditions A and B was compared to determine whether the drug was active on quiescent parasites. Condition C was designed to check that the concentration at which the drug was tested acted on proliferating parasites. If no parasite recrudescence was observed, the experiment was stopped.

half-life at 1 µM ([1]; both sexes, pH 7.4, human liver microsomes): 7 min
microsomal CLint at 1 µM ([1]; both sexes, human liver microsomes, pH 7.4): 250 µL/min/mg
Drug remaining after 30 min ([1]; human liver microsomes): 5%
half-life at 1 µM ([1]; male, CD1, pH 7.4, mouse liver microsomes): 4 min
microsomal CLint at 1 µM ([1]; male, CD1, mouse liver microsomes, pH 7.4): 429 µL/min/mg
half-life at 1 µM ([1]; male, Sprague Dawley, pH 7.4, rat liver microsomes): 4 min
microsomal CLint at 1 µM ([1]; male, Sprague Dawley, rat liver microsomes, pH 7.4): 442 µL/min/mg
Drug remaining after 30 min ([1]; mouse liver microsomes): 0.6%
Drug remaining after 30 min ([1]; rat liver microsomes): 0.5%
Structure (SMILES): C[C@H]1[C@H](OC(=O)CCC(=O)O)O[C@@H]2O[C@@]3(C)CC[C@H]4[C@H](C)CC[C@@H]1[C@@]24OO3 [Artesunate, artesunate, reference compound]

Structure (SMILES): CCN(CC)Cc1cc(Nc2ccnc3cc(Cl)ccc23)ccc1O [AQ, amodiaquine, reference compound]
IC50 ([2]; uRBC 1.0% hematocrit): 3.9 nM
IC50 ([2]; uRBC 2.5% hematocrit): 3.6 nM
Fold changes (24 h/0.16 h) ([2]; uRBC 1.0% hematocrit): 0.76
Fold changes (24 h/0.16 h) ([2]; uRBC 2.5% hematocrit): 0.91

Structure (SMILES): O=C1C(O)=C([C@H]2CC[C@H](c3ccc(Cl)cc3)CC2)C(=O)c2ccccc21 [ATO, atovaquone, reference compound]
IC50 ([3]; viability at 24 h, read-out: IC50, 24 h): > 600 nM
IC50 ([3]; viability at 48 h, read-out: IC50, 48 h): 5.3 nM
IC50 ([3]; viability at 72 h, read-out: IC50, 72 h): 0.78 nM
Conclusion (speed of antiparasitic activity) ([3]; from IC50 at 24, 48, 72 h): Slow-acting
delay of recrudescence in the QSA versus DHA alone [4]: up to 10 days
